≈ marks a conversion by molar mass, not a printed value.
Assays:
Assay type in all cases: functional
Pseudomonas aeruginosa = experiment: Antibacterial activity against Pseudomonas aeruginosa after 24 hrs by two fold dilution method
Staphylococcus aureus = experiment: Antibacterial activity against Staphylococcus aureus after 24 hrs by two fold dilution method
[1] = Antioxidant activity assessed as ABTS radical scavenging activity at 100 ug/ml after 30 mins
Aspergillus niger = experiment: Antifungal activity against Aspergillus niger after 24 hrs by two fold dilution method
[2] = system: Staphylococcus epidermidis; experiment: Antibacterial activity against Staphylococcus epidermidis after 24 hrs by two fold dilution method
[3] = Cytotoxicity against human MCF7 cells after 48 hrs by MTT assay; details: MCF7, 48 h
[4] = Antifungal activity against Microsporum audouinii after 24 hrs by two fold dilution method
[5] = Cytotoxicity against human HeLa cells after 48 hrs by MTT assay
Klebsiella pneumoniae = experiment: Antibacterial activity against Klebsiella pneumoniae after 24 hrs by two fold dilution method
[6] = Antioxidant activity assessed as reduction in AAPH free radical-induced linoleic acid peroxidation activity measured at 100 ug/ml by UV spectroscopic analysis; design: scale not given: the % may be the effect or the level left
Candida albicans = experiment: Antifungal activity against Candida albicans after 24 hrs by two fold dilution method
[7] = Antifungal activity against Cryptococcus neoformans after 24 hrs by two fold dilution method
[8] = Cytotoxicity against human HepG2 cells after 48 hrs by MTT assay; details: HepG2, 48 h
Escherichia coli = experiment: Antibacterial activity against Escherichia coli after 24 hrs by two fold dilution method

Row | Structure (SMILES) | MIC (Pseudomonas aeruginosa) | MIC (Staphylococcus aureus) | Activity [1] | MIC (Aspergillus niger) | MIC [2] | GI50 [3] | LC50 [3] | TGI [3] | MIC [4] | GI50 [5] | LC50 [5] | TGI [5] | MIC (Klebsiella pneumoniae) | Activity [6] | MIC (Candida albicans) | MIC [7] | GI50 [8] | LC50 [8] | TGI [8] | MIC (Escherichia coli)
1 | O=[N+]([O-])c1ccc(N2C(O)CC(c3ccccc3)N2C(c2ccc3c(c2)OCO3)N2CCOCC2)c([N+](=O)[O-])c1 (stereo not drawn) | 2 mg/L (≈ 3.64 µM) | > 100 mg/L | 34.5% | 8 mg/L (≈ 14.6 µM) | > 100 mg/L | 12.9 µM | 87.2 µM | 45.3 µM | 32 mg/L (≈ 58.2 µM) | 52.9 µM | > 100 µM | 81.3 µM | 64 mg/L (≈ 116 µM) | 29.8% | 16 mg/L (≈ 29.1 µM) | 64 mg/L (≈ 116 µM) | 21.3 µM | 62.1 µM | 41 µM | > 100 mg/L
2 | COc1ccc(C(N2CCOCC2)N2C(c3ccccc3)CC(O)N2c2ccc([N+](=O)[O-])cc2[N+](=O)[O-])cc1 (stereo not drawn) | > 100 mg/L | 4 mg/L (≈ 7.47 µM) | 61.2% | > 100 mg/L | 8 mg/L (≈ 14.9 µM) | – | > 100 µM | – | 8 mg/L (≈ 14.9 µM) | 31.8 µM | > 100 µM | 63.2 µM | > 100 mg/L | 59.1% | > 100 mg/L | > 100 mg/L | – | > 100 µM | – | > 100 mg/L
3 | CN(C)c1ccc(C(N2CCOCC2)N2C(c3ccccc3)CC(O)N2c2ccc([N+](=O)[O-])cc2[N+](=O)[O-])cc1 (stereo not drawn) | 64 mg/L (≈ 117 µM) | > 100 mg/L | 31% | > 100 mg/L | 2 mg/L (≈ 3.65 µM) | 13.9 µM | > 100 µM | 28.9 µM | > 100 mg/L | 29.2 µM | > 100 µM | 57.9 µM | 64 mg/L (≈ 117 µM) | 29.6% | 2 mg/L (≈ 3.65 µM) | > 100 mg/L | 35.8 µM | > 100 µM | 62.3 µM | 8 mg/L (≈ 14.6 µM)
4 | O=[N+]([O-])c1ccc(N2C(O)CC(c3ccccc3)N2C(c2ccccn2)N2CCOCC2)c([N+](=O)[O-])c1 (stereo not drawn) | 32 mg/L (≈ 63.2 µM) | 18 mg/L (≈ 35.5 µM) | 16.8% | > 100 mg/L | > 100 mg/L | 18.6 µM | 52.3 µM | 41.8 µM | > 100 mg/L | 21.6 µM | 87.4 µM | 54.7 µM | 4 mg/L (≈ 7.9 µM) | 51.3% | 8 mg/L (≈ 15.8 µM) | 8 mg/L (≈ 15.8 µM) | 29.1 µM | 67.5 µM | 46.8 µM | > 100 mg/L
5 | Clc1ccccc1C(c1ccccc1)(c1ccccc1)n1ccnc1 [CLOTRIMAZOLE] | – | – | – | 2 mg/L (≈ 5.8 µM) | – | – | – | – | 0.5 mg/L (≈ 1.45 µM) | – | – | – | – | – | 1 mg/L (≈ 2.9 µM) | 0.5 mg/L (≈ 1.45 µM) | – | – | – | –
6 | O=C(O)c1cn(C2CC2)c2cc(N3CCNCC3)c(F)cc2c1=O [CIPROFLOXACIN] | 1 mg/L (≈ 3.02 µM) | 0.5 mg/L (≈ 1.51 µM) | – | – | 4 mg/L (≈ 12.1 µM) | – | – | – | – | – | – | – | 2 mg/L (≈ 6.04 µM) | – | – | – | – | – | – | –
7 | CC(C)=CCC/C(C)=C\C(N1CCOCC1)N1C(c2ccccc2)CC(O)N1c1ccc([N+](=O)[O-])cc1[N+](=O)[O-] (stereo not drawn) | 1 mg/L (≈ 1.81 µM) | > 100 mg/L | 91.3% | 8 mg/L (≈ 14.5 µM) | 8 mg/L (≈ 14.5 µM) | 7.8 µM | 40.4 µM | 21.9 µM | 16 mg/L (≈ 29 µM) | 13.8 µM | 71.4 µM | 29.6 µM | 8 mg/L (≈ 14.5 µM) | 84.5% | 0.5 mg/L (≈ 0.906 µM) | 32 mg/L (≈ 58 µM) | 38.1 µM | > 100 µM | 69.1 µM | 64 mg/L (≈ 116 µM)
8 | O=[N+]([O-])c1ccc(C(N2CCOCC2)N2C(c3ccccc3)CC(O)N2c2ccc([N+](=O)[O-])cc2[N+](=O)[O-])cc1 (stereo not drawn) | – | 1 mg/L (≈ 1.82 µM) | 58.3% | – | 2 mg/L (≈ 3.63 µM) | 20.8 µM | > 100 µM | 59.3 µM | 32 mg/L (≈ 58.1 µM) | 8.9 µM | 43.9 µM | 16.8 µM | – | 47.9% | – | 32 mg/L (≈ 58.1 µM) | 49 µM | > 100 µM | 77.3 µM | 64 mg/L (≈ 116 µM)
9 | O=[N+]([O-])c1ccc(N2C(O)CC(c3ccccc3)N2C(c2ccco2)N2CCOCC2)c([N+](=O)[O-])c1 (stereo not drawn) | 64 mg/L (≈ 129 µM) | 20 mg/L (≈ 40.4 µM) | 20.7% | 2 mg/L (≈ 4.04 µM) | 16 mg/L (≈ 32.3 µM) | 32.1 µM | 82 µM | 56.4 µM | 0.5 mg/L (≈ 1.01 µM) | 30.8 µM | 80.7 µM | 52.1 µM | 16 mg/L (≈ 32.3 µM) | 42.8% | 16 mg/L (≈ 32.3 µM) | > 100 mg/L | 41.4 µM | > 100 µM | 64.8 µM | 64 mg/L (≈ 129 µM)
10 | Cc1c(C)c2c(c(C)c1O)CCC(C)(C(=O)O)O2 (stereo not drawn) | – | – | 85.2% | – | – | – | – | – | – | – | – | – | – | 62.3% | – | – | – | – | – | –
11 | O=[N+]([O-])c1ccc(N2C(O)CC(c3ccccc3)N2C(c2cncs2)N2CCOCC2)c([N+](=O)[O-])c1 (stereo not drawn) | 64 mg/L (≈ 125 µM) | > 100 mg/L | 24.6% | 32 mg/L (≈ 62.4 µM) | 32 mg/L (≈ 62.4 µM) | 34 µM | > 100 µM | 67.4 µM | 64 mg/L (≈ 125 µM) | 37.9 µM | 78.9 µM | 51.9 µM | > 100 mg/L | 21.5% | 32 mg/L (≈ 62.4 µM) | 32 mg/L (≈ 62.4 µM) | 32 µM | 89.3 µM | 61.3 µM | 2 mg/L (≈ 3.9 µM)
12 | O=[N+]([O-])c1ccc(N2C(O)CC(c3ccccc3)N2C(c2c[nH]c3ccccc23)N2CCOCC2)c([N+](=O)[O-])c1 (stereo not drawn) | 8 mg/L (≈ 14.7 µM) | 1 mg/L (≈ 1.84 µM) | 27.8% | 16 mg/L (≈ 29.4 µM) | > 100 mg/L | 24.4 µM | 76.3 µM | 59.3 µM | 8 mg/L (≈ 14.7 µM) | 34.2 µM | > 100 µM | 72.1 µM | > 100 mg/L | 34.6% | 32 mg/L (≈ 58.8 µM) | 64 mg/L (≈ 118 µM) | 15.9 µM | 54.8 µM | 38.2 µM | > 100 mg/L
13 | COc1cccc2c1C(=O)c1c(O)c3c(c(O)c1C2=O)C[C@@](O)(C(=O)CO)C[C@@H]3O[C@H]1C[C@H](N)[C@H](O)[C@H](C)O1 [DOXORUBICIN] | – | – | – | – | – | 0.02 µM | – | 0.21 µM | – | 0.05 µM | – | 0.41 µM | – | – | – | – | 0.01 µM | – | 0.13 µM | –
14 | O=[N+]([O-])c1ccc(N2C(O)CC(c3ccccc3)N2C(c2ccc(Cl)cc2)N2CCOCC2)c([N+](=O)[O-])c1 (stereo not drawn) | 64 mg/L (≈ 119 µM) | 64 mg/L (≈ 119 µM) | 41.9% | 64 mg/L (≈ 119 µM) | > 100 mg/L | 46.1 µM | > 100 µM | 85.1 µM | 64 mg/L (≈ 119 µM) | 51 µM | > 100 µM | 89.2 µM | 64 mg/L (≈ 119 µM) | 32% | 1 mg/L (≈ 1.85 µM) | 64 mg/L (≈ 119 µM) | 12.2 µM | 42.8 µM | 23.1 µM | 0.5 mg/L (≈ 0.926 µM)
15 | O=[N+]([O-])c1ccc(N2C(O)CC(c3ccccc3)N2C(c2ccccc2)N2CCOCC2)c([N+](=O)[O-])c1 (stereo not drawn) | – | – | 34.6% | > 100 mg/L | – | – | > 100 µM | – | – | – | > 100 µM | – | > 100 mg/L | 21.8% | > 100 mg/L | – | 43.2 µM | > 100 µM | 78.3 µM | 8 mg/L (≈ 15.8 µM)
16 | O=[N+]([O-])c1ccc(N2C(O)CC(c3ccccc3)N2C(c2ccc(O)cc2)N2CCOCC2)c([N+](=O)[O-])c1 (stereo not drawn) | 15 mg/L (≈ 28.8 µM) | – | 81.6% | > 100 mg/L | – | – | > 100 µM | – | 8 mg/L (≈ 15.3 µM) | 41.3 µM | > 100 µM | 87.2 µM | 8 mg/L (≈ 15.3 µM) | 75.4% | – | – | 36.3 µM | > 100 µM | 65.3 µM | > 100 mg/L

From ChEMBL document CHEMBL3872243, “Synthesis of new morpholine-connected pyrazolidine derivatives and their antimicrobial, antioxidant, and cytotoxic activities” (2017)
